Test results: patent US9108984B2, “Substituted diamino-pyrimidine and diamino-pyridine derivatives as PI3K inhibitors” (Incyte Corporation, priority 2011, dated 2015)
pIC50: −log10 of the molar value.

Tests used:
[1] = test system: Pfeiffer cells (diffuse large B cell lymphoma); experiment: Pfeiffer cell proliferation assay; format: cell-based; settings: Homo sapiens, [3H]-thymidine incorporation, 3-4 days
Experimental: Pfeiffer Cell Proliferation Assay
Pfeiffer cell line (diffuse large B cell lymphoma) was purchased from ATCC (Manassas, Va.) and maintained in the culture medium recommended (RPMI and 10% FBS). To measure the anti-proliferation activity of the compounds, the Pfeiffer cells were plated with the culture medium (2×10^3 cells/well/per 200 μl) into 96-well ultra-low binding plates (Corning, Corning, N.Y.), in the presence or absence of a concentration range of test compounds. After 3-4 days, [^3H]-thymidine (1 μCi/well) (PerkinElmer, Boston, Mass.) in PBS wass then added to the cell culture for an additional 12 hours before the incorporated radioactivity was separated by filtration with water through GF/B filters (Packard Bioscience, Meridenj, Conn.) and measured by liquid scintillation counting with a TopCount (Packard Bioscience).

PI3Kδ (p110δ/p85α) = PI3Kδ (p110δ/p85α) (Homo sapiens (Human), UniProt O00329); experiment: PI3Kδ scintillation proximity assay (enzyme assay); format: biochemical; settings: PI3Kδ SPA, 20 μM ATP, 20 μM PIP2, 210 min
Sequence of PI3Kδ (p110δ/p85α) (O00329 whole entry): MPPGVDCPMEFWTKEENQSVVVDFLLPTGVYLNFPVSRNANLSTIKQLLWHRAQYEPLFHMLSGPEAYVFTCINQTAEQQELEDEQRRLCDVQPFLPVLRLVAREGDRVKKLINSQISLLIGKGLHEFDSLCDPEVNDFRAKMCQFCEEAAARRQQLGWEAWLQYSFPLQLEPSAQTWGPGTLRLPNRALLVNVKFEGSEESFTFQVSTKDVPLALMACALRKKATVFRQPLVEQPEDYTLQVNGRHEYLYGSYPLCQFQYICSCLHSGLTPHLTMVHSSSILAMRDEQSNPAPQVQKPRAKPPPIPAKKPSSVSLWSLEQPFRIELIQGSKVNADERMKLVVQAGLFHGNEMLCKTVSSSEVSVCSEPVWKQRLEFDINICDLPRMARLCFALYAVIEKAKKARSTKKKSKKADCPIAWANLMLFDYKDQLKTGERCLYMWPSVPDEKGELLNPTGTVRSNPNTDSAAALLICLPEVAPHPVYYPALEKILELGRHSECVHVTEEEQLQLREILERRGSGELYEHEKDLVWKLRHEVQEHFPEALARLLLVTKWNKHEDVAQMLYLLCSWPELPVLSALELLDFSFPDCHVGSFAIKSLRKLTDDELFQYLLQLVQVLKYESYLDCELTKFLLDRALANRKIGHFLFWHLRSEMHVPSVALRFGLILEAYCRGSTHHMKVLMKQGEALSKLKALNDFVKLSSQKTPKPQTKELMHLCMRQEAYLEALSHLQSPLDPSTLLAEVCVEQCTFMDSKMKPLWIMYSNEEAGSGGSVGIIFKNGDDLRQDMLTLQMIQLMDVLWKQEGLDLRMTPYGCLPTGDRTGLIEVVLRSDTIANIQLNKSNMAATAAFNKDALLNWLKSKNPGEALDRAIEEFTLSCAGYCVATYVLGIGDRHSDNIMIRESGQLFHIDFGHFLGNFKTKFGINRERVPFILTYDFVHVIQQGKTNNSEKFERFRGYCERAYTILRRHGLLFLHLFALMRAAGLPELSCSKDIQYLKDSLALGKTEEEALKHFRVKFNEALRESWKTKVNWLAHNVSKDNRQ
Sequence of PI3Kδ (p110δ/p85α) (P27986 whole entry partner): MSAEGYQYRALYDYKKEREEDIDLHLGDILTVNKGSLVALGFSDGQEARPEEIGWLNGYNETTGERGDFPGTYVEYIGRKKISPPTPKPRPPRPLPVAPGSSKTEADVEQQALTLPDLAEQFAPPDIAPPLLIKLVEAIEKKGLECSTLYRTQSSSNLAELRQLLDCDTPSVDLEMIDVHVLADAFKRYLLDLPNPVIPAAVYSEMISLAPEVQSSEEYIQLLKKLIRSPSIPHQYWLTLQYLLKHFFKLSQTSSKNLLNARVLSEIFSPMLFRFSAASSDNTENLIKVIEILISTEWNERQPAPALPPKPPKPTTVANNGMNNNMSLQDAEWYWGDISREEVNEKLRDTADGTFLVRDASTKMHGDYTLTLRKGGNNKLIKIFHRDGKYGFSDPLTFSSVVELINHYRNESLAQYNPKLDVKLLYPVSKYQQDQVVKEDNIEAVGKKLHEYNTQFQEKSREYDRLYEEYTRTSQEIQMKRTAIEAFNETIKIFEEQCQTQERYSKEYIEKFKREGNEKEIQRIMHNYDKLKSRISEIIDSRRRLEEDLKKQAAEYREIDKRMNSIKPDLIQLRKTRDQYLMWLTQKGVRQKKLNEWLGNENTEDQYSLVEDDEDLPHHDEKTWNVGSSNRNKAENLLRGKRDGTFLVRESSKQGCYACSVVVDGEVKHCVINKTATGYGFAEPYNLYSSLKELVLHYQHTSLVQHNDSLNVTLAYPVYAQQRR
Excerpt: PI3Kδ Scintillation Proximity Assay
[γ-^33P]ATP (10 mCi/mL) was purchased from Perkin-Elmer (Waltham, Mass.). Lipid kinase substrate, D-myo-Phosphatidylinositol 4,5-bisphosphate (PtdIns(4,5)P2)D (+)-sn-1,2-di-O-octanoylglyceryl, 3-O-phospho linked (PIP2), CAS 204858-53-7, was purchased from Echelon Biosciences (Salt Lake City, Utah). PI3Kδ (p110δ/p85α) was purchased from Millipore (Bedford, Mass.). ATP, MgCl2, DTT, EDTA, MOPS and CHAPS were purchased from Sigma-Aldrich (St. Louis, Mo.). Wheat Germ Agglutinin (WGA) YSi SPA Scintillation Beads was purchased from GE healthcare life sciences (Piscataway, N.J.).
The kinase reaction was conducted in polystyrene 384-well matrix white plate from Thermo Fisher Scientific in a final volume of 25 μL. Inhibitors were first diluted serially in DMSO and added to the plate wells before the addition of other reaction components. The final concentration of DMSO in the assay was 0.5%. The PI3K assays were carried out at room temperature in 20 mM MOPS, pH 6.7, 10 mM MgCl2, 5 mM DTT and CHAPS 0.03%. Reactions were initiated by the addition of ATP, the final reaction mixture consisted of 20 μM PIP2, 20 μM ATP, 0.2 μCi [γ-^33P] ATP, 4 nM PI3Kδ. […] After the plate sealing, plates were shaken overnight at room temperature and centrifuged at 1800 rpm for 10 minutes, the radioactivity of the product was determined by scintillation counting on Topcount (Perkin-Elmer). […]

Structure (SMILES) | pIC50 [1] | pIC50 (PI3Kδ (p110δ/p85α))
CC(Nc1ncnc(N)c1C#N)c1cc(Cl)c2ccnnc2c1-c1cccc(F)c1 (single isomer, unassigned) [Example 1, 4-Amino-6-({1-[5-chloro-8-(3-fluorophenyl)cinnolin-7-yl]ethyl}amino)-pyrimidine-5-carbonitrile] | > 7.70 | > 7.70
Cc1csc2nc([C@H](C)Nc3ncnc(N)c3C#N)c(-c3cccc(F)c3)c(=O)n12 [Example 2, 4-amino-6-({(1S)-1-[6-(3-fluorophenyl)-3-methyl-5-oxo-5H-[1,3]thiazolo[3,2-a]pyrimidin-7-yl]ethyl}amino)pyrimidine-5-carbonitrile] | > 7.70 | > 7.70
